Assay results from patent publication US4528369A, “20-Dihydro-20-deoxy-23-de(mycinosyloxy)tylosin” (Eli Lilly and Company, priority 1983, dated 1985).
Converted amounts (≈) assume the structure as drawn. “Also recorded” adds a separate entry of the source. Read-outs that look alike come from different tables or passages of the source.

Tests used:
Solubility = format: physicochemical; conditions: free base
[1] = test system: pathogenic bacteria, especially gram-positive bacteria and Mycoplasma species; assay: Inhibition of growth of pathogenic bacteria (in words); format: cell-based
Procedure: (§1) Tables II and III summarize the minimal inhibitory concentrations (MIC) at which 20-deoxo-DMOT and mycaminosyltylactone (as free bases) inhibit certain organisms. The MIC's in Table II were determined by standard agar-dilutionassays. The MIC's in Table III were obtained using a conventional broth-dilution microtiter test.

Escherichia coli N10 = assay: MIC, standard agar-dilution assay (Table II); format: cell-based; conditions: free base, E. coli N10
Procedure: as §1

[2] = test system: Streptococcus pneumoniae Park 1; assay: MIC, standard agar-dilution assay (Table II); format: cell-based; conditions: PARK1, free base, S. pneumoniae Park 1
Procedure: as §1

[3] = test system: Klebsiella pneumoniae X26; assay: MIC, standard agar-dilution assay (Table II); format: cell-based
Procedure: as §1

[4] = test system: Streptococcus sp. group D 9960; assay: MIC, standard agar-dilution assay (Table II); format: cell-based
Procedure: as §1

[5] = test system: Staphylococcus aureus X400; assay: MIC, standard agar-dilution assay (Table II); format: cell-based
Procedure: as §1

[6] = test system: Staphylococcus epidermidis EPI1; assay: MIC, standard agar-dilution assay (Table II); format: cell-based; conditions: free base, S. epidermidis EPI1
Procedure: as §1

Escherichia coli EC14 = assay: MIC, standard agar-dilution assay (Table II); format: cell-based; conditions: free base, E. coli EC14
Procedure: as §1

[7] = test system: Haemophilus influenzae C.L.; assay: MIC, standard agar-dilution assay (Table II); format: cell-based
Procedure: as §1

[8] = test system: Klebsiella pneumoniae KAE; assay: MIC, standard agar-dilution assay (Table II); format: cell-based; conditions: free base, K. pneumoniae KAE
Procedure: as §1

[9] = test system: Haemophilus influenzae 76; assay: MIC, standard agar-dilution assay (Table II); format: cell-based
Procedure: as §1

[10] = test system: Staphylococcus aureus NRRL B313; assay: MIC, standard agar-dilution assay (Table II); format: cell-based
Procedure: as §1

Escherichia coli TEM = assay: MIC, standard agar-dilution assay (Table II); format: cell-based
Procedure: as §1

[11] = test system: Staphylococcus aureus S13E; assay: MIC, standard agar-dilution assay (Table II); format: cell-based
Procedure: as §1

[12] = test system: Streptococcus pyogenes C203; assay: MIC, standard agar-dilution assay (Table II); format: cell-based
Procedure: as §1

[13] = test system: Staphylococcus epidermidis EPI2; assay: MIC, standard agar-dilution assay (Table II); format: cell-based; conditions: free base, S. epidermidis EPI2
Procedure: as §1

Shigella sonnei N9 = assay: MIC, standard agar-dilution assay (Table II); format: cell-based; conditions: free base
Procedure: as §1

[14] = test system: Streptococcus faecium ATCC 9790; assay: MIC, standard agar-dilution assay (Table II); format: cell-based; conditions: Enterococcus faecium, ATCC9790
Procedure: as §1

[15] = test system: Staphylococcus aureus V41; assay: MIC, standard agar-dilution assay (Table II); format: cell-based; conditions: free base, S. aureus V41
Procedure: as §1

Mycoplasma synoviae = assay: MIC, conventional broth-dilution microtiter test (Table III); format: cell-based; conditions: Mycoplasmopsis synoviae, free base, M. synoviae
Procedure: as §1

[16] = test system: Pasteurella multocida 17E; assay: as above; format: cell-based; conditions: free base, P. multocida 17E, bovine isolate
Procedure: as §1

[17] = test system: Pasteurella hemolytica 22C; assay: as above; format: cell-based; conditions: free base, P. hemolytica 22C
Procedure: as §1

Mycoplasma hyorhinis = assay: as above; format: cell-based; conditions: free base, M. hyorhinis
Procedure: as §1

[18] = test system: Pasteurella multocida 60A; assay: as above; format: cell-based; conditions: free base, P. multocida 60A, avian isolate
Procedure: as §1

Mycoplasma gallisepticum = assay: as above; format: cell-based; conditions: Mycoplasmoides gallisepticum, free base, M. gallisepticum
Procedure: as §1

## CCC1CC(C)C(=O)/C=C/C(C)=C/C(C)C(CC)OC(=O)CC(O)C(C)C1OC1OC(C)C(OC2CC(C)(O)C(O)C(C)O2)C(N(C)C)C1O (stereo not shown) [20-Deoxo-DMOT, 20-dihydro-20-deoxy-23-de(mycinosyloxy)tylosin]
Solubility
  solubility in water: slightly soluble in water
Solubility; acetone, methanol, ethanol, chloroform, dimethylformamide and dimethyl sulfoxide
  solubility in polar organic solvents: soluble in most polar organic solvents such as acetone, methanol, ethanol, chloroform, dimethylformamide and dimethyl sulfoxide
[1]
  antibacterial activity (in words): some antibacterial activity; also recorded: inhibit the growth of pathogenic bacteria, especially gram-positive bacteria and Mycoplasma species
Escherichia coli N10
  MIC: > 128 µg/mL
[2]
  MIC: 64 µg/mL (≈ 89.9 µM)
[3]; X26
  MIC: > 128 µg/mL
[4]; Streptococcus
  MIC: > 128 µg/mL
[5]; X400
  MIC: 128 µg/mL (≈ 180 µM)
[6]
  MIC: 64 µg/mL (≈ 89.9 µM)
Escherichia coli EC14
  MIC: > 128 µg/mL
[7]
  MIC: > 128 µg/mL
[8]
  MIC: > 128 µg/mL
[9]; 76
  MIC: > 128 µg/mL
[10]; NRRLB313
  MIC: 128 µg/mL (≈ 180 µM)
Escherichia coli TEM
  MIC: > 128 µg/mL
[11]
  MIC: 64 µg/mL (≈ 89.9 µM)
[12]; C203
  MIC: 128 µg/mL (≈ 180 µM)
[13]
  MIC: 64 µg/mL (≈ 89.9 µM)
Shigella sonnei N9
  MIC: > 128 µg/mL
[14]
  MIC: > 128 µg/mL
[15]
  MIC: 64 µg/mL (≈ 89.9 µM)
Mycoplasma synoviae
  MIC: 50 µg/mL (≈ 70.2 µM)
[16]
  MIC: > 50 µg/mL
[17]
  MIC: > 50 µg/mL
Mycoplasma hyorhinis
  MIC: 50 µg/mL (≈ 70.2 µM)
[18]
  MIC: > 50 µg/mL
Mycoplasma gallisepticum
  MIC: > 50 µg/mL

## CCC1CC(C)C(=O)/C=C/C(C)=C/C(C)C(CC)OC(=O)CC(O)C(C)C1OC1OC(C)C(O)C(N(C)C)C1O (stereo not shown) [Mycaminosyltylactone, 5-O-mycaminosyltylactone]
[1]
  antibacterial activity (in words): inhibit the growth of pathogenic bacteria, especially gram-positive bacteria and Mycoplasma species
Escherichia coli N10
  MIC: > 128 µg/mL
[2]
  MIC: 4 µg/mL (≈ 7.05 µM)
[3]; free base, agar-dilution, K. pneumoniae X26, read-out: MIC
  MIC: 8 µg/mL (≈ 14.1 µM)
[4]; free base, agar-dilution, Streptococcus sp. group D 9960, read-out: MIC
  MIC: 32 µg/mL (≈ 56.4 µM)
[5]; free base, agar-dilution, S. aureus X400, read-out: MIC
  MIC: 32 µg/mL (≈ 56.4 µM)
[6]
  MIC: 8 µg/mL (≈ 14.1 µM)
Escherichia coli EC14
  MIC: > 128 µg/mL
[7]; free base, agar-dilution, H. influenzae C.L., read-out: MIC
  MIC: 16 µg/mL (≈ 28.2 µM)
[8]
  MIC: > 128 µg/mL
[9]; free base, agar-dilution, H. influenzae 76, read-out: MIC
  MIC: 16 µg/mL (≈ 28.2 µM)
[10]; NRRLB313, free base, agar-dilution, S. aureus NRRL B313, read-out: MIC
  MIC: 16 µg/mL (≈ 28.2 µM)
Escherichia coli TEM
  MIC: > 128 µg/mL
[11]
  MIC: 8 µg/mL (≈ 14.1 µM)
[12]; free base, agar-dilution, S. pyogenes C203, read-out: MIC
  MIC: 32 µg/mL (≈ 56.4 µM)
[13]
  MIC: 16 µg/mL (≈ 28.2 µM)
Shigella sonnei N9
  MIC: > 128 µg/mL
[14]; free base, agar-dilution, S. faecium ATCC 9790, read-out: MIC
  MIC: 32 µg/mL (≈ 56.4 µM)
[15]
  MIC: 16 µg/mL (≈ 28.2 µM)
Mycoplasma synoviae
  MIC: 12.5 µg/mL (≈ 22 µM)
[16]
  MIC: 12.5 µg/mL (≈ 22 µM)
[17]
  MIC: 25 µg/mL (≈ 44 µM)
Mycoplasma hyorhinis
  MIC: 50 µg/mL (≈ 88.1 µM)
[18]
  MIC: 12.5 µg/mL (≈ 22 µM)
Mycoplasma gallisepticum
  MIC: 1.56 µg/mL (≈ 2.75 µM)
